This experiment has as its system thymocytes of surrenalectomized rats. The experiment is described as follows: Antiglucocorticoidal activity, incorporation of tritiated uridine in thymocytes. The class given is cell-based. The settings on record: for inhibition at 1 µM / inhibition at 0.1 µM / inhibition at 0.01 µM: Rattus norvegicus, Thymocyte, read-out: % inhibition of effect of Dexamethasone; for inhibition at 1 µM / % inhibition of effect of Dexamethasone (symbol): 5 × 10^-8 M dexamethasone + test product 10^-6 M; for inhibition at 0.1 µM: 5 × 10^-8 M dexamethasone + test product 10^-7 M; for inhibition at 0.01 µM: 5 × 10^-8 M dexamethasone + test product 10^-8 M. As to the method: III. Antiglucocorticoidal Activity
The test used was that of Dausse et al [Molecular Pharmacology, Vol. 13 (1977), p. 948-955] entitled "The relationship between glucocorticoid structure and effects upon thymocytes" for […] thymocytes. The thymocytes of surrenalectomized rats were incubated at 37° C. for 3 hours in a nutritive medium containing 5×10^-8 M of dexamethasone in the presence or absence of the test compound at different concentrations. Tritiated uridine was added and incubation was continued for one hour. The incubates were cooled and treated with a 5% trifluoroacetic acid solution and the mixture was filtered with Whatman GF/A paper. The filter was washed 3 times with a 5% trifluoroacetic acid solution and retained radioactivity on the filter was determined.

Broadly, the inhibition is how much of the control response was suppressed. Turning to `CC#C[C@]1(O)CC[C@H]2[C@@H]3CCC4=CC(=O)C(=CN5CCOCC5)CC4=C3[C@@H](c3ccc(N(C)C)cc3)C[C@@]21C` [Example 4, 2-(4-morpholinylmethylene)-11β-(4-dimethylaminophenyl)-17α-(prop-1-ynyl)-Δ^4,9-estradiene-17β-ol-3-one], the inhibition at 1 µM turned out to be 51%, the inhibition at 0.1 µM is 0% and the inhibition at 0.01 µM worked out at 0%.

Take `CC#C[C@]1(O)CC[C@H]2[C@@H]3CCC4=CC(=O)C(=COC(C)=O)CC4=C3[C@@H](c3ccc(N(C)C)cc3)C[C@@]21C` [Example 3, 2-(acetyloxymethylene)-11β-(4-dimethylaminophenyl)-17α-(prop-1-ynyl)-Δ^4,9-estradiene-17β-ol-3-one]: the inhibition at 1 µM is 60%, the inhibition at 0.1 µM amounted to 0% and the inhibition at 0.01 µM was determined as 0%.

Regarding `CC#C[C@]1(O)CC[C@H]2[C@@H]3CCC4=C(CCC(=O)C4)[C@H]3[C@@H](c3cccc(OC)c3)C[C@@]21C` [Example 6, 11β-(3-methoxyphenyl)-17α-(prop-1-ynyl)-Δ^5(10) -estrene-17β-ol-3-one], the inhibition at 1 µM came to 68%, the inhibition at 0.1 µM is 0% and the inhibition at 0.01 µM was 0%.

Regarding `CC#C[C@]1(O)CC[C@H]2[C@@H]3CCc4cc(O)ccc4[C@H]3[C@@H](c3ccc(N(C)C)cc3)C[C@@]21C` [2 (17 OH), 11β-(4-dimethylaminophenyl)-17α-(prop-1-ynyl)-Δ^1,3,5(10) -estratriene-3,17β-diol], the “% inhibition of effect of Dexamethasone (symbol)” value is on record as “* (A dose of 10^-6 M inhibited the effect of dexamethasone totally)”, the inhibition at 0.1 µM stood at 91% and the inhibition at 0.01 µM amounted to 41%.

Consider `C/C=C/[C@]1(O)CC[C@H]2[C@@H]3CCC4=C(CCC(=O)C4)[C@H]3[C@@H](c3cccc(OC)c3)C[C@@]21C` [6 (17α propenyle), 11β-(3-methoxyphenyl)-17α-(E)-(prop-1-enyl)-Δ^5(10) -estrene-17β-ol-3-one], for which the inhibition at 1 µM was 56%, the inhibition at 0.1 µM turned out to be 0% and the inhibition at 0.01 µM is 0%.

Regarding `C[C@@H]1C[C@H]2[C@@H]3CCC4=CC(=O)C=C[C@]4(C)[C@@]3(F)[C@@H](O)C[C@]2(C)[C@@]1(O)C(=O)CO` [dexamethasone, reference compound], the “effect on incorporation of tritiated uridine (in words)” value (glucocorticoid alone) is on record as “provoked a lessening of incorporation of tritiated uridine”.

With `CC#C[C@]1(O)CC[C@H]2[C@@H]3CCC4=Cc5oncc5CC4=C3[C@@H](c3ccc(N(C)C)cc3)C[C@@]21C` [Example 7, 11β-(4-dimethylaminophenyl)-17α-(prop-1-ynyl)-isoxazolo[4,5-b]-Δ^4,9-estradiene-17β-ol], the “% inhibition of effect of Dexamethasone (symbol)” value is “* (A dose of 10^-6 M inhibited the effect of dexamethasone totally)”, the inhibition at 0.1 µM was 27% and the inhibition at 0.01 µM worked out at 0%.
